Experimental findings from US8288552B2, “Dihydropyridone amidesas P2X7 modulators” (Roche Palo Alto LLC, priority 2008, dated 2012) are described below.

This assay addresses T1, P2X7 (UniProt Q99572).
T1 sequence (Q99572 1-595): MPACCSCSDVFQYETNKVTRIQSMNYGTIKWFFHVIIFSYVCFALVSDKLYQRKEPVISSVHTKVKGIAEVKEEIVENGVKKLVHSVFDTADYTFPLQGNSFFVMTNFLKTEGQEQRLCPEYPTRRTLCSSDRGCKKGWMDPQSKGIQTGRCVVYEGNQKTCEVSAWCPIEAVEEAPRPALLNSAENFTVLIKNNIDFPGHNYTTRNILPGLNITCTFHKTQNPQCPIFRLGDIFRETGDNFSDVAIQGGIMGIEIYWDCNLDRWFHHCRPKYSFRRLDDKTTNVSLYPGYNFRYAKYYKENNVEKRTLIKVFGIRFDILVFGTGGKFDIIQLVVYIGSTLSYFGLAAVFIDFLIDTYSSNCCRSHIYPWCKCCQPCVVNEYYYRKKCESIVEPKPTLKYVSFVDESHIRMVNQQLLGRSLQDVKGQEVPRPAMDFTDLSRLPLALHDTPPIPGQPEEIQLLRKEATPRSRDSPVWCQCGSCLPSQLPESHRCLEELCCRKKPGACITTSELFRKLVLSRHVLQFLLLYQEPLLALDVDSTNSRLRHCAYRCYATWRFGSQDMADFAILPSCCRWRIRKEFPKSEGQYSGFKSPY
Description: P2X7 pKi of Table 1. The format is cell-based. In a few lines:
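Human P2X7 in 1321N1 cells and rat P2X7 in HEK293 cells, loaded with fluo-3 for 1 hr at 37° C, then exposed to antagonist for 20 min at room temperature. BzATP agonist was used at 100 μM final (human) or 5 μM final (rat), with fluorescence read for 5 min. The response was normalized to maximal fluorescence evoked by 5 μM ionomycin.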
For `Cc1ccc(OC(F)(F)F)cc1NC(=O)C1=CNC(=O)C[C@H]1c1ccc(F)cc1` [Compound 99, (S)-4-(4-Fluoro-phenyl)-6-oxo-1,4,5,6-tetrahydro-pyridine-3-carboxylic acid(2-methyl-5-trifluoromethoxy-phenyl)-amide], the negative-log Ki (pKi) amounted to 6.755.
In the case of `Cc1cc(Cl)c(NC(=O)C2=CNC(=O)C[C@H]2c2ccc(F)cc2)cc1OCCO` [Compound 129, (S)-4-(4-Fluoro-phenyl)-6-oxo-1,4,5,6-tetrahydro-pyridine-3-carboxylic acid[2-chloro-5-(2-hydroxy-ethoxy)-4-methyl-phenyl]-amide] it was 7.265; in that of `COc1cc(C)c(NC(=O)C2=CN(C)C(=O)C(C)C2c2ccc(F)cc2)cc1OC` (stereo not drawn) [Compound 91, 4-(4-Fluoro-phenyl)-1,5-dimethyl-6-oxo-1,4,5,6-tetrahydro-pyridine-3-carboxylic acid(4,5-dimethoxy-2-methyl-phenyl)-amide], 5.65.
In the case of `O=C1C[C@@H](c2cccc(F)c2)C(C(=O)NCc2ccccc2Cl)=CN1` [Compound 84, (S)-4-(3-Fluoro-phenyl)-6-oxo-1,4,5,6-tetrahydro-pyridine-3-carboxylic acid 2-chloro-benzylamide] it was 6.365; in that of `Cc1ccc(S(N)(=O)=O)cc1NC(=O)C1=CNC(=O)CC1c1ccc(F)cc1` (stereo not drawn) [Compound 67, 4-(4-Fluoro-phenyl)-6-oxo-1,4,5,6-tetrahydro-pyridine-3-carboxylic acid(2-methyl-5-sulfamoyl-phenyl)-amide], 5.515; in that of `Cc1c(Cl)cccc1NC(=O)C1=CNC(=O)C[C@H]1c1cccc(F)c1` [Compound 88, (S)-4-(3-Fluoro-phenyl)-6-oxo-1,4,5,6-tetrahydro-pyridine-3-carboxylic acid(3-chloro-2-methyl-phenyl)-amide], 7.915.
For the compound `COc1cccc(NC(=O)C2=CNC(=O)C[C@H]2c2ccc(F)cc2)c1C` [Compound 106, (S)-4-(4-Fluoro-phenyl)-6-oxo-1,4,5,6-tetrahydro-pyridine-3-carboxylic acid(3-methoxy-2-methyl-phenyl)-amide], the pKi was found to be 7.375.
To `Cc1cc(Cl)c(OCCO)cc1NC(=O)C1=CNC(=O)C[C@@H]1c1cccc(F)c1` [Compound 71, (R)-4-(3-Fluoro-phenyl)-6-oxo-1,4,5,6-tetrahydro-pyridine-3-carboxylic acid[4-chloro-5-(2-hydroxy-ethoxy)-2-methyl-phenyl]-amide] belongs 6.815; to `Cc1ccc(C(C)O)cc1NC(=O)C1=CNC(=O)C[C@H]1c1ccc(F)cc1` (stereo partly drawn) [Compound 80, (S)-4-(4-Fluoro-phenyl)-6-oxo-1,4,5,6-tetrahydro-pyridine-3-carboxylic acid[5-(1-hydroxy-ethyl)-2-methyl-phenyl]-amide], 7.59.
In the case of `Cc1cc(C)c(Br)c(NC(=O)C2=CNC(=O)C[C@@H]2c2ccc(F)cc2)c1` [Compound 59, (R)-4-(4-Fluoro-phenyl)-6-oxo-1,4,5,6-tetrahydro-pyridine-3-carboxylic acid(2-bromo-3,5-dimethyl-phenyl)-amide], the negative-log Ki (pKi) is on record as 7.57.
In the case of `COc1cc(NC(=O)C2=CNC(=O)CC2c2cccc(F)c2)c(C)cc1F` (stereo not drawn) [Compound 64, 4-(3-Fluoro-phenyl)-6-oxo-1,4,5,6-tetrahydro-pyridine-3-carboxylic acid(4-fluoro-5-methoxy-2-methyl-phenyl)-amide] it was 8.17.
To `CCN1C=C(C(=O)Nc2cc(OC)c(OC)cc2C)[C@H](c2ccc(F)cc2)CC1=O` [Compound 144, (S)-1-Ethyl-4-(4-fluoro-phenyl)-6-oxo-1,4,5,6-tetrahydro-pyridine-3-carboxylic acid(4,5-dimethoxy-2-methyl-phenyl)-amide] belongs 7.06; to `Cc1ccc(C(C)C)cc1NC(=O)C1=CNC(=O)CC1c1cccc(F)c1` (stereo not drawn) [Compound 51, 4-(3-Fluoro-phenyl)-6-oxo-1,4,5,6-tetrahydro-pyridine-3-carboxylic acid(5-isopropyl-2-methyl-phenyl)-amide], 7.445.
To `COc1cc(NC(=O)C2=CNC(=O)C[C@H]2c2ccc(F)cc2)c(Br)cc1F` [Compound 109, (S)-4-(4-Fluoro-phenyl)-6-oxo-1,4,5,6-tetrahydro-pyridine-3-carboxylic acid(2-bromo-4-fluoro-5-methoxy-phenyl)-amide] belongs 7.15; to `Cc1cccc(NC(=O)C2=CNC(=O)C[C@H]2c2ccc(F)cc2)c1C` [Compound 58, (S)-4-(4-Fluoro-phenyl)-6-oxo-1,4,5,6-tetrahydro-pyridine-3-carboxylic acid (2,3-dimethyl-phenyl)-amide], 6.785; to `COc1cc(NC(=O)C2=CNC(=O)CC2c2ccc(F)cc2)ccc1C` (stereo not drawn) [Compound 11, 4-(4-Fluoro-phenyl)-6-oxo-1,4,5,6-tetrahydro-pyridine-3 carboxylic acid(3-methoxy-4-methyl-phenyl)-amide], 6.03.
`CCOC(=O)Cc1ccc(C)c(NC(=O)C2=CNC(=O)C[C@H]2c2ccc(F)cc2)c1` [Compound 145, (3-{[(S)-4-(4-Fluoro-phenyl)-6-oxo-1,4,5,6-tetrahydro-pyridine-3-carbonyl]-amino}-4-methyl-phenyl)-acetic acid ethyl ester] showed a pKi of 6.55.
As for `Cc1cc(C)c(OCCO)cc1NC(=O)C1=CNC(=O)C[C@H]1c1ccc(F)cc1` [Compound 114, (S)-4-(4-Fluoro-phenyl)-6-oxo-1,4,5,6-tetrahydro-pyridine-3-carboxylic acid [5-(2-hydroxy-ethoxy)-2,4-dimethyl-phenyl]-amide], the negative logarithm of the Ki (pKi) is 7.815.
Compound `O=C1CC(c2ccc(F)cc2)C(C(=O)Nc2cc(OCCO)c(Cl)cc2Br)=CN1` (stereo not drawn) [Compound 65, 4-(4-Fluoro-phenyl)-6-oxo-1,4,5,6-tetrahydro-pyridine-3-carboxylic acid[2-bromo-4-chloro-5-(2-hydroxy-ethoxy)-phenyl]-amide] had a pKi of 6.7.
To `Cc1c(Cl)cccc1NC(=O)C1=CNC(=O)C[C@H]1c1ccc(F)cc1` [Compound 94, (S)-4-(4-Fluoro-phenyl)-6-oxo-1,4,5,6-tetrahydro-pyridine-3-carboxylic acid(3-chloro-2-methyl-phenyl)-amide] belongs 7.83; to `Cc1ccc(C)c(NC(=O)C2=CNC(=O)CC2c2ccc(F)cc2)c1` (stereo not drawn) [Compound 36, 4-(4-Fluoro-phenyl)-6-oxo-1,4,5,6-tetrahydro-pyridine-3-carboxylic acid(2,5-dimethyl-phenyl)-amide], 6.93; to `Cc1cc(Cl)c(OCCO)cc1NC(=O)C1=CNC(=O)C[C@@H]1c1ccc(F)cc1` [Compound 74, (R)-4-(4-Fluoro-phenyl)-6-oxo-1,4,5,6-tetrahydro-pyridine-3-carboxylic acid[4-chloro-5-(2-hydroxy-ethoxy)-2-methyl-phenyl]-amide], 6.63.
In the case of `Cc1ccc(C)c(NC(=O)C2=CNC(=O)C[C@H]2c2ccc(F)cc2)c1` [Compound 56, (S)-4-(4-Fluoro-phenyl)-6-oxo-1,4,5,6-tetrahydro-pyridine-3-carboxylic acid (2,5-dimethyl-phenyl)-amide] it was 6.56; in that of `Cc1ccccc1CNC(=O)C1=CNC(=O)C[C@H]1c1cccc(F)c1` [Compound 83, (S)-4-(3-Fluoro-phenyl)-6-oxo-1,4,5,6-tetrahydro-pyridine-3-carboxylic acid 2-methyl-benzylamide], 6.17.
